From patent US11357779B2 (G1 Therapeutics, Inc., priority 2018, dated 2022)
Where two headings read alike, the source gives them in different places.

Assay: Noncompartmental pharmacokinetic parameters (Cmax, Tmax, AUC, Racc) in QD and BID cohorts of Form B
Assay type: in vivo, human
Details: human, plasma, oral, Compound III
Protocol: Analysis of plasma concentration versus time data for calculation of standard pharmacokinetic (PK) parameters following oral administration was conducted using Phoenix WinNonlin version 6.3 using actual blood sampling times.
The following pharmacokinetic parameters were calculated from the concentration versus time data obtained in Example 1 for each of the above QD (200 mg, 300 mg, 400 mg, 500 mg, or 650 mg dosed) and BID (100 mg, 150 mg, or 200 mg doses) Form B of Compound II dosage cohorts: • Cmax—the observed peak plasma concentration determined from the plasma concentration versus time data obtained on Day 1 and Day 29, as applicable; • Tmax—the time to reach the observed peak plasma concentration from the plasma concentration versus time data obtained on Day 1 and Day 29, as applicable; • AUC—area under the plasma concentration versus time curve during a dosing interval on Day 1 and Day 29, as applicable; and • Racc—accumulation ratio calculated as AUCDay 29/AUCDay 1.

## O=C1NCC2(CCCCC2)n2c1cc1cnc(Nc3ccc(N4CCNCC4)cn3)nc12 [Compound III, 2′-((5-(piperazin-1-yl)pyridin-2-yl)amino)-7′,8′-dihydro-6′H-spiro[cyclohexane-1,9′-pyrazino[1′,2′:1,5]pyrrolo[2,3-d]pyrimidin]-6′-one]
150 mg, 150 mg BID of Form B, Cohort 7, Day 1, read-out: AUClast (Median)
  AUC(0-t): 16.3 ng·h/mL
150 mg, 150 mg BID of Form B, Cohort 7, Day 1, read-out: Cmax (Mean)
  Cmax: 3.2 ng/mL
150 mg, 150 mg BID of Form B, Cohort 7, Day 1, read-out: Cmax (Median)
  Cmax: 3 ng/mL
150 mg, 150 mg BID of Form B, Cohort 7, Day 1, read-out: Tmax (Mean)
  Tmax: 3 h
150 mg, 150 mg BID of Form B, Cohort 7, Day 1, read-out: Tmax (Median)
  Tmax: 3 h
150 mg, 150 mg BID of Form B, Cohort 7, Day 29, read-out: AUClast (Mean)
  AUC(0-t): 47.9 ng·h/mL
150 mg, 150 mg BID of Form B, Cohort 7, Day 29, read-out: AUClast (Median)
  AUC(0-t): 23.3 ng·h/mL
150 mg, 150 mg BID of Form B, Cohort 7, Day 29, read-out: Cmax (Mean)
  Cmax: 6.23 ng/mL
150 mg, 150 mg BID of Form B, Cohort 7, Day 29, read-out: Cmax (Median)
  Cmax: 3.55 ng/mL
150 mg, 150 mg BID of Form B, Cohort 7, Day 29, read-out: Tmax (Mean)
  Tmax: 3 h
150 mg, 150 mg BID of Form B, Cohort 7, Day 29, read-out: Tmax (Median)
  Tmax: 3 h
200 mg, 200 mg BID of Form B, Cohort 8, Day 1, read-out: AUClast (Mean)
  AUC(0-t): 17.2 ng·h/mL
200 mg, 200 mg BID of Form B, Cohort 8, Day 1, read-out: AUClast (Median)
  AUC(0-t): 18.6 ng·h/mL
200 mg, 200 mg BID of Form B, Cohort 8, Day 1, read-out: Cmax (Mean)
  Cmax: 2.87 ng/mL
200 mg, 200 mg BID of Form B, Cohort 8, Day 1, read-out: Cmax (Median)
  Cmax: 3 ng/mL
200 mg, 200 mg BID of Form B, Cohort 8, Day 1, read-out: Tmax (Mean)
  Tmax: 4.75 h
200 mg, 200 mg BID of Form B, Cohort 8, Day 1, read-out: Tmax (Median)
  Tmax: 5 h
200 mg, 200 mg BID of Form B, Cohort 8, Day 29, read-out: AUClast (Mean)
  AUC(0-t): 22 ng·h/mL
200 mg, 200 mg BID of Form B, Cohort 8, Day 29, read-out: AUClast (Median)
  AUC(0-t): 20.1 ng·h/mL
200 mg, 200 mg BID of Form B, Cohort 8, Day 29, read-out: Cmax (Mean)
  Cmax: 2.79 ng/mL
200 mg, 200 mg BID of Form B, Cohort 8, Day 29, read-out: Cmax (Median)
  Cmax: 2.77 ng/mL
200 mg, 200 mg BID of Form B, Cohort 8, Day 29, read-out: Tmax (Mean)
  Tmax: 6.33 h
200 mg, 200 mg BID of Form B, Cohort 8, Day 29, read-out: Tmax (Median)
  Tmax: 4 h
200 mg, 200 mg QD of Form B, Cohort 1, Day 1, read-out: AUClast (Mean)
  AUC(0-t): 23.7 ng·h/mL
200 mg, 200 mg QD of Form B, Cohort 1, Day 1, read-out: AUClast (Median)
  AUC(0-t): 21.3 ng·h/mL
200 mg, 200 mg QD of Form B, Cohort 1, Day 1, read-out: Cmax (Mean)
  Cmax: 4.18 ng/mL
200 mg, 200 mg QD of Form B, Cohort 1, Day 1, read-out: Cmax (Median)
  Cmax: 3.88 ng/mL
200 mg, 200 mg QD of Form B, Cohort 1, Day 1, read-out: Tmax (Mean)
  Tmax: 4.17 h
200 mg, 200 mg QD of Form B, Cohort 1, Day 1, read-out: Tmax (Median)
  Tmax: 4 h
200 mg, 200 mg QD of Form B, Cohort 1, Day 29, read-out: AUClast (Mean)
  AUC(0-t): 27.9 ng·h/mL
200 mg, 200 mg QD of Form B, Cohort 1, Day 29, read-out: AUClast (Median)
  AUC(0-t): 25.4 ng·h/mL
200 mg, 200 mg QD of Form B, Cohort 1, Day 29, read-out: Cmax (Mean)
  Cmax: 3.14 ng/mL
200 mg, 200 mg QD of Form B, Cohort 1, Day 29, read-out: Cmax (Median)
  Cmax: 2.52 ng/mL
200 mg, 200 mg QD of Form B, Cohort 1, Day 29, read-out: Tmax (Mean)
  Tmax: 4.2 h
200 mg, 200 mg QD of Form B, Cohort 1, Day 29, read-out: Tmax (Median)
  Tmax: 4 h
300 mg, 300 mg QD of Form B, Cohort 2, Day 1, read-out: AUClast (Mean)
  AUC(0-t): 43.1 ng·h/mL
300 mg, 300 mg QD of Form B, Cohort 2, Day 1, read-out: AUClast (Median)
  AUC(0-t): 53.1 ng·h/mL
300 mg, 300 mg QD of Form B, Cohort 2, Day 1, read-out: Cmax (Mean)
  Cmax: 4.81 ng/mL
300 mg, 300 mg QD of Form B, Cohort 2, Day 1, read-out: Cmax (Median)
  Cmax: 6.21 ng/mL
300 mg, 300 mg QD of Form B, Cohort 2, Day 1, read-out: Tmax (Mean)
  Tmax: 3.67 h
300 mg, 300 mg QD of Form B, Cohort 2, Day 1, read-out: Tmax (Median)
  Tmax: 4 h
300 mg, 300 mg QD of Form B, Cohort 2, Day 29, read-out: AUClast (Mean)
  AUC(0-t): 66.2 ng·h/mL
300 mg, 300 mg QD of Form B, Cohort 2, Day 29, read-out: AUClast (Median)
  AUC(0-t): 56.1 ng·h/mL
300 mg, 300 mg QD of Form B, Cohort 2, Day 29, read-out: Cmax (Mean)
  Cmax: 5.44 ng/mL
300 mg, 300 mg QD of Form B, Cohort 2, Day 29, read-out: Cmax (Median)
  Cmax: 5.56 ng/mL
300 mg, 300 mg QD of Form B, Cohort 2, Day 29, read-out: Tmax (Mean)
  Tmax: 5.33 h
300 mg, 300 mg QD of Form B, Cohort 2, Day 29, read-out: Tmax (Median)
  Tmax: 4 h
400 mg, 400 mg QD of Form B, Cohort 3, Day 1, read-out: AUClast (Mean)
  AUC(0-t): 25.6 ng·h/mL
400 mg, 400 mg QD of Form B, Cohort 3, Day 1, read-out: AUClast (Median)
  AUC(0-t): 29.2 ng·h/mL
400 mg, 400 mg QD of Form B, Cohort 3, Day 1, read-out: Cmax (Mean)
  Cmax: 4.85 ng/mL
400 mg, 400 mg QD of Form B, Cohort 3, Day 1, read-out: Cmax (Median)
  Cmax: 4.66 ng/mL
400 mg, 400 mg QD of Form B, Cohort 3, Day 1, read-out: Tmax (Mean)
  Tmax: 4.33 h
400 mg, 400 mg QD of Form B, Cohort 3, Day 1, read-out: Tmax (Median)
  Tmax: 6 h
400 mg, 400 mg QD of Form B, Cohort 3, Day 29, read-out: AUClast (Mean)
  AUC(0-t): 42.6 ng·h/mL
400 mg, 400 mg QD of Form B, Cohort 3, Day 29, read-out: AUClast (Median)
  AUC(0-t): 40.9 ng·h/mL
400 mg, 400 mg QD of Form B, Cohort 3, Day 29, read-out: Cmax (Mean)
  Cmax: 3.5 ng/mL
400 mg, 400 mg QD of Form B, Cohort 3, Day 29, read-out: Cmax (Median)
  Cmax: 3.4 ng/mL
400 mg, 400 mg QD of Form B, Cohort 3, Day 29, read-out: Tmax (Mean)
  Tmax: 5.33 h
400 mg, 400 mg QD of Form B, Cohort 3, Day 29, read-out: Tmax (Median)
  Tmax: 6 h
500 mg, 500 mg QD of Form B, Cohort 4, Day 1, read-out: AUClast (Mean)
  AUC(0-t): 77.7 ng·h/mL
500 mg, 500 mg QD of Form B, Cohort 4, Day 1, read-out: AUClast (Median)
  AUC(0-t): 79 ng·h/mL
500 mg, 500 mg QD of Form B, Cohort 4, Day 1, read-out: Cmax (Mean)
  Cmax: 7.98 ng/mL
500 mg, 500 mg QD of Form B, Cohort 4, Day 1, read-out: Cmax (Median)
  Cmax: 8.03 ng/mL
500 mg, 500 mg QD of Form B, Cohort 4, Day 1, read-out: Tmax (Mean)
  Tmax: 5.5 h
500 mg, 500 mg QD of Form B, Cohort 4, Day 1, read-out: Tmax (Median)
  Tmax: 6 h
500 mg, 500 mg QD of Form B, Cohort 4, Day 29, read-out: AUClast (Mean)
  AUC(0-t): 66.4 ng·h/mL
500 mg, 500 mg QD of Form B, Cohort 4, Day 29, read-out: AUClast (Median)
  AUC(0-t): 69.6 ng·h/mL
500 mg, 500 mg QD of Form B, Cohort 4, Day 29, read-out: Cmax (Mean)
  Cmax: 5.98 ng/mL
500 mg, 500 mg QD of Form B, Cohort 4, Day 29, read-out: Cmax (Median)
  Cmax: 5.37 ng/mL
500 mg, 500 mg QD of Form B, Cohort 4, Day 29, read-out: Tmax (Mean)
  Tmax: 3.67 h
500 mg, 500 mg QD of Form B, Cohort 4, Day 29, read-out: Tmax (Median)
  Tmax: 4 h
650 mg, 650 mg QD of Form B, Cohort 5, Day 1, read-out: AUClast (Mean)
  AUC(0-t): 123 ng·h/mL
650 mg, 650 mg QD of Form B, Cohort 5, Day 1, read-out: AUClast (Median)
  AUC(0-t): 125 ng·h/mL
650 mg, 650 mg QD of Form B, Cohort 5, Day 1, read-out: Cmax (Mean)
  Cmax: 10.9 ng/mL
650 mg, 650 mg QD of Form B, Cohort 5, Day 1, read-out: Cmax (Median)
  Cmax: 10.4 ng/mL
650 mg, 650 mg QD of Form B, Cohort 5, Day 1, read-out: Tmax (Mean)
  Tmax: 6.67 h
650 mg, 650 mg QD of Form B, Cohort 5, Day 1, read-out: Tmax (Median)
  Tmax: 7 h
650 mg, 650 mg QD of Form B, Cohort 5, Day 29, read-out: AUClast (Mean)
  AUC(0-t): 125 ng·h/mL
650 mg, 650 mg QD of Form B, Cohort 5, Day 29, read-out: AUClast (Median)
  AUC(0-t): 125 ng·h/mL
650 mg, 650 mg QD of Form B, Cohort 5, Day 29, read-out: Cmax (Mean)
  Cmax: 8.7 ng/mL
650 mg, 650 mg QD of Form B, Cohort 5, Day 29, read-out: Cmax (Median)
  Cmax: 8.7 ng/mL
650 mg, 650 mg QD of Form B, Cohort 5, Day 29, read-out: Tmax (Mean)
  Tmax: 7 h
650 mg, 650 mg QD of Form B, Cohort 5, Day 29, read-out: Tmax (Median)
  Tmax: 7 h
